Results: patent publication US10391166B2, “Short oligonucleotides as vaccine adjuvants and therapeutic agents” (priority 2013, dated 2019)
“Also recorded” adds a separate entry of the source. Like-named read-outs stand apart in the source and are kept apart here.

How the values were obtained:
phosphorylated IRF3 = test: Western blot for phosphorylated IRF3 in human lung epithelial A549 cells; assay type: cell-based; settings: 500 nM, Western blotting
Description: Human lung epithelial A549 cells were incubated with either DMSO or SB 44 (500 nM). At indicated post-treatment time-points, the cell lysate was subjected to Western blotting with antibody specific for phosphorylated IRF3 (phospho-IRF3) (Cell signaling).

MHC-II = assay type: cell-based, mouse
RIG-I = molecular target: T1, RIG-I (Homo sapiens, UniProt O95786); test: IRF3-luciferase assay in HEK 293 cells transfected with RIGI; assay type: cell-based; settings: 100 or 500 nM; 8 h or 16 h incubation
T1 construct: expressed in transfected cells; host or cells: HEK 293
T1 sequence (O95786 1-925): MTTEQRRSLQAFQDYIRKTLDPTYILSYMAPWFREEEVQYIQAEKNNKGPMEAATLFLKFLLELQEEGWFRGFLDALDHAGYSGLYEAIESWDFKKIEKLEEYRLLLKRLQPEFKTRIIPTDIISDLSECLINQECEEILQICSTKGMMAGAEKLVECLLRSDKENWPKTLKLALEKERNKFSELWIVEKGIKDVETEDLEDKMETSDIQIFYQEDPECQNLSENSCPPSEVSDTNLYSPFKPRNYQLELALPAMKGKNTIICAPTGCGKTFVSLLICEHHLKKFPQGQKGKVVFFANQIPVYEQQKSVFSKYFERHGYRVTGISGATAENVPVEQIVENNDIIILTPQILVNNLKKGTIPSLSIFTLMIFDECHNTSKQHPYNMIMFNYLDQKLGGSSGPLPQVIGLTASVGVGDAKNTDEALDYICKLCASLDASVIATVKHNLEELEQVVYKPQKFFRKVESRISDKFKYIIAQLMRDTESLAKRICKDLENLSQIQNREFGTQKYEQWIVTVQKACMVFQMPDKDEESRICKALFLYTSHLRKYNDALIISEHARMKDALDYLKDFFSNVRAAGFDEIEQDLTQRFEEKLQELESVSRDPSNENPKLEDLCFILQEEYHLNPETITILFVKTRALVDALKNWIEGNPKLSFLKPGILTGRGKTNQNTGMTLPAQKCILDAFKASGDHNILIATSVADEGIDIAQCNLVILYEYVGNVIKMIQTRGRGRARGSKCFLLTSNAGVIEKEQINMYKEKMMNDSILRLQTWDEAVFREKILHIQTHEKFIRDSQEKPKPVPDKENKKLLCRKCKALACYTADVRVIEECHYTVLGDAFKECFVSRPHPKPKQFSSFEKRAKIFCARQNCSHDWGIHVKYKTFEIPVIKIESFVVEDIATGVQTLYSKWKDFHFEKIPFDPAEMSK
Description: HEK 293 cells were transfected with RIGI, pcDNA and IRF3-luciferase. The cells were then incubated with SB 44 (100 or 500 nM). Following 8 h or 16 h incubation, Luciferase activity was measured as described previously. The Luciferase assay results are presented as mean±S.D. from three independent experiments.

PBMCs = assay type: cell-based
[1] = tested on: rat bone marrow erythrocytes; test: Bone-marrow micronucleus evaluation in rats; assay type: in vivo, Sprague-Dawley rats; settings: 14-day oral dosing
Description: Necropsies were performed on Day 15 for rats in the main study group and on Day 28 for rats in the recovery group.

[2] = Bioreversibility of SB 44 in serum; assay type: in vitro ADME
Source text: Similar to the serum-mediated conversion of SB 44 to SB 40, in the case of microsomes liver esterases appear to be the major metabolizing enzymes involved in the hydrolytic conversion of SB 44 to SB 40. […] The facile bioconversion of SB 44 to SB 40 in liver and plasma is also consistent with broad substrate specificity of the ubiquitous esterase enzymes.

[3] = Dose range-finding oral toxicity study in rats (single dose and 7 days); assay type: in vivo, Sprague-Dawley rats
Source text: The objective of this study was to determine potential toxic effects, to identify potential target organs of toxicity, and to determine a maximum tolerated dose (MTD) and a no observable adverse effect level (NOAEL) for the endpoints examined following daily oral gavage of SB 44 for 7 consecutive days to adult male and female Sprague-Dawley rats. Information from this study was used to design subsequent toxicity studies and determine the suitability of the proposed human dose. This study consisted of Phase A and Phase B. Phase A was a dose range-finding study. Two rats (1 male and 1 female) were included in the study. Animals were given a single dose of SB 44 at 1000 mg/kg by oral gavage (po) and observed for 3 days. […] No necropsy was performed.
In Phase B, rats (3/sex/group) were given a daily oral dose of SB 44 at 50, 250, and 1000 mg/kg/day for 7 consecutive days. A control group (3/sex) was also given a daily oral dose of the vehicle, 50% PEG 400 plus 50% HPMCT (0.1% hydroxypropyl methylcellulose and 0.2% Tween 80 in sterile water), at an equivalent volume for 7 days. Animals were sacrificed on Day 8. The following parameters were evaluated: mortality/morbidity, clinical observations, body weights, clinical pathology (hematology and serum chemistry), organ weights, and, at necropsy, macroscopic observations and microscopic histopathology for liver tissues.

[4] = liver microsomes
Description: SB 44 (10 μM) was incubated with a mix containing S9 fraction (pooled from human) (1 mg/ml), NADPH (1.3 mM) UDPGA (5 mM), Alamethicin (10 μg/ml) in 1 ml of 1×PBS buffer. […] The metabolite samples were evaluated by HPLC and LC/MS analysis.

[5] = tested on: C57Bl/6 mouse bone marrow derived macrophages; assay type: cell-based
[6] = tested on: HFF (human foreskin fibroblasts); test: MTT cytotoxicity assay, HFF cells; assay type: cell-based; settings: 24-hour incubation
Source text: SDS was used as a positive cytotoxic control.

[7] = Dose range-finding oral study in cynomolgus monkeys; assay type: in vivo; settings: 500 mg/kg/day oral for 4 days
Description: The objective of this study was to determine a maximum tolerated dose (MTD) and a no observable adverse effect level (NOAEL) for the endpoints examined following daily oral gavage of SB 44 for 4 consecutive days to cynomolgus monkeys. Information from this study was used to design subsequent dose-ranging toxicity studies and determine the suitability of the proposed human dose.
SB 44 was administered orally to cynomolgus monkeys consecutively for 4 days at 500 mg/kg/day.

[8] = human liver S9 fractions
Description: SB 44 (10 μM) was incubated with a mix containing S9 fraction (pooled from human) (1 mg/ml), NADPH (1.3 mM) UDPGA (5 mM), Alamethicin (10 μg/ml) in 1 ml of 1×PBS buffer. S-(5′-adenosyl)-L-methionine iodide (0.1 mM), adenosine 3′-phosphate 5′-phosphosulfate lithium salt hydrate (0.1 mM) and acetyl CoA (1 mM). The metabolite samples were evaluated by HPLC and LC/MS analysis.

For `COC1C(OP(=O)(OCC2OC(n3cnc4c(N)ncnc43)CC2O)SCOC(=O)OC(C)C)C(CO)OC1n1ccc(=O)[nH]c1=O` (mixture of isomers) [SB 44], the “activated IRF3 (phospho-IRF3) detection” value (phosphorylated IRF3) was “detection of activated IRF3”, the “surface expression of MHC-II” value (MHC-II) was “increase MHC-II in MΦs; also recorded: enhances surface expression of MHC-II” and the “IRF3 induction following activation of RIG-I” value (RIG-I) was “IRF3 induction following activation of RIG-I”. The “IFN production in the presence of BCG” value (PBMCs) was “modest augmentation of IFN production”, the induction of micronuclei [1] was “not found to induce micronuclei” and the “conversion rates of the individual isomers” value [2] was “almost equal rates”. The NOAEL ([3]; daily oral administration for 7 consecutive days) was “at least 1000 mg/kg/day”, the adverse effects ([3]; daily oral gavage 50, 250, 1000 mg/kg/day for 7 days) was “no overt biologically or toxicologically significant adverse effects” and the “clinical observation after single dose” value ([3]; single dose 1000 mg/kg po, observed 3 days) was “appeared normal”. The minor metabolites [4] was < 10%, the “rate differences in conversion of Rp- and Sp-isomers” value [4] was “no significant rate differences” and the desulfurized product ([4]; MS analysis) was < 5%. For the same compound, the “conversion of prodrug to SB 40” value ([4]; up to eight hours) was “stereospecific conversion to the dinucleotide Rp, Sp-SB 40”, the “antigen presentation (Antigen-85B) in macrophages” value [5] was “enhance antigen presentation in vitro” and the CC50 [6] was > 1000 µM. The “elevation of ALT” value [7] was “about 2 fold”, the “elevation of AST” value [7] was “about 6 fold” and the tolerability [7] was “clinically well tolerated”. The “conversion of prodrug to SB 40” value [8] was “stereospecific conversion of SB 44 to the dinucleotide SB 40”, the “phase II conjugative reactions” value [8] was “no apparent evidence of any phase II conjugative reactions” and the “desulfurized product corresponding to SB 40” value ([8]; LC/MS) was < 5%.
